Data on 9 molecules can be found in patent publication US8158621B2, “Methods of treating or preventing autoimmune diseases with 2,4-pyrimidinediamine compounds” (Rigel Pharmaceuticals, Inc., priority 2002, dated 2012).

Bounds are passed on as bounds.

For data set [1], the system named is cultured human mast cells (CHMC). Nature of the data set: CHMC low cell density ionomycin activation: tryptase assay. It counts as cell-based.
For data set [2] the test system is unchanged. Nature of the data set: CHMC low cell density IgE activation: LTC4 assay. It counts as cell-based. The settings on record: anti-IgE activation, LTC4 release. Here is the method: Pellet CHMC cells (980 rpm, 10 min) and resuspend in pre-warmed MT. Add 65 ul of cells to each 96-well plate. Depending on the degranulation activity for each particular CHMC donor, load 1000-1500 cells/well. Mix four times followed by a 1 hr incubation at 37° C. […] Stimulate cells by adding 25 ul of 6× anti-IgE solution to the appropriate plates. Add 25 ul MT to un-stimulated control wells. Mix twice following addition of the anti-IgE. Incubate at 37° C. for 30 minutes. […] Spin plates at 1000 rpm for 10 min to pellet cells. Transfer 25 ul of supernatant to a 96-well black bottom plate and add 100 ul of freshly diluted tryptase substrate solution to each well. Incubate plates at room temperature for 30 min.
Leukotriene C4 (LTC4) is also quantified using an ELISA kit on appropriately diluted supernatant samples (determined empirically for each donor cell population so that the sample measurement falls within the standard curve) following the supplier's instructions.

Another data set concerns Jurkat cells. In words: Jurkat (T-cell) toxicity, light scatter. The following applies: read-out: Toxicity Jurkat Light Scat. It counts as cell-based, human. As for the experimental part:
Dilute Jurkat cells to 2×10^5 cells/ml in complete RPMI (10% heat-inactivated fetal bovine serum) media and incubate at 37° C., 5% CO2 for 18 hours. Add 65 ul cells at 7.7×10^5 cells/ml to a 96-well V-bottom plate (TC-treated, Costar) containing 65 ul 2× compound (final vehicle concentration is 0.5% DMSO, 1.5% MeOH). Mix, incubate plates for 18-24 hr at 37° C., 5% CO2. Toxicity was assessed by flow cytometric analysis of cellular light scatter

Data set [3] deals with Human Jurkat T-cells (clone N). Nature of the data set: Jurkat T-cell activation (anti-TCR, CD69 upregulation). It counts as cell-based. The essentials:
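Jurkat cells in RPMI + 5% FBS preincubated with compound 1 h at 37 °C, then stimulated with anti-TCR C305 at 500 ng/ml for 20 h. CD69 surface expression stained with anti-CD69-APC and read by flow cytometry; IC50 versus solvent-only control.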

In the next data set the test system is B-cell line BJAB. In words: BJAB (B-cell) toxicity, light scatter. It counts as cell-based. The following applies: read-out: Toxicity BJAB Light Scat. Here is the method: The B-cell line BJAB was cultured in log phase in RPMI1640+10% heat-inactivated fetal bovine serum, 1× L-glutamine, 1× penicillin, 1× […] and 1× beta-mercaptoethanol at 37° C., 5% CO2. First, BJABs were harvested, spun and resuspended in culture medium to a concentration of 7.7×10^5 cells/mL. 65 uL cells were mixed with 65 uL compound, in duplicate and in the presence of 0.1% DMSO in a V-bottomed 96-well tissue culture plate. Cells were incubated with compound at various dilutions at 37° C., 5% CO2. Toxicity was assessed by flow cytometric analysis of cellular light scatter.

Data set [4] relates to cultured human mast cells (CHMC). In words: CHMC low cell density IgE activation: tryptase assay. It is filed as cell-based. The essentials: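 Cells pelleted, taken up in warm MT, plated at 1000-1500/well, held 1 hr 37° C. Anti-IgE added, 30 min 37° C. Plates spun; supernatant mixed with tryptase substrate, 30 min RT.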
The subject of data set [5] is basophil cells (human peripheral blood). Nature of the data set: Basophil anti-IgE activation: histamine release assay. It is filed as cell-based. The settings on record: basophils, anti-IgE activation, histamine release; read-out: Basophils anti-IgE Histamine IC50. As for the experimental part: (§1) The basophil activation assay was carried out using whole human peripheral blood from donors allergic to dust mites with the majority of the red blood cells removed by dextran sedimentation. Human peripheral blood was mixed 1:1 with 3% dextran T500 and RBCs were allowed to settle for 20-25min. The upper fraction was diluted with 3 volumes of D-PBS and cells were spun down for 10 min at 1500 rpm, RT. Supernatant was aspirated and cells were washed in an equal volume MT-buffer. Finally, cells were resuspended in MT-buffer containing 0.5% DMSO in the original blood volume. 80 uL cells were mixed with 20 uL compound in the presence of 0.5% DMSO, in triplicate, in a V-bottom 96-well tissue culture plate. A dose range of 8 compound concentrations was tested resulting in a 10-point dose response curve including maximum (stimulated) and minimum (unstimulated) response. […] The cells were stimulated for 30 minutes at 37° C., 5% CO2. The plate was spun for 10 min at 1500 rpm at room temperature and 80 uL the supernatant was harvested for histamine content analysis using the histamine ELISA kit supplied by Immunotech. The ELISA was performed according to supplier's instructions.

For data set [6] the test system is unchanged. Nature of the data set: Basophil ionomycin activation: histamine release assay. It counts as cell-based. The settings on record: basophils, ionomycin activation, histamine release; read-out: Basophils Ionomycin Histamine IC50. Here is the method:
as §1
Assays for ionomycin-induced basophil cell degranulation were carried out as described for the Basophil IgE or Dustmite Activation Assay (Section 7.5.5, supra), with the exception that following incubation with compound, cells were stimulated with 20 μl of 2 μM ionomycin.

The test system of the next data set is Primary human B-cells. Nature of the data set: Primary B-cell activation (α-IgM, CD69 upregulation). The settings on record: read-out: 1° B-Cell CD69 IC50. It is filed as cell-based. As for the experimental part: Primary human B-cells were isolated from buffy coat, the white cell layer that forms between the red cells and the […] when anti-coagulated blood is centrifuged, or from fresh blood using CD19-Dynal® beads and a FACS. Buffy coat was obtained from the Stanford Medical School Blood Centre, prepared on the same day by the blood bank, stored and transported cold (with ice). The buffy coat (approx 35 mL) was placed in a 500 mL conical sterile centrifuge pot and cooled on ice, then diluted with cold PBS containing 0.2% BSA (Sigma: A7638) and sodium citrate (0.1%, Sigma: S-5570) (P—B—C) to a total volume of 200 mL and mixed gently. Fresh blood was collected from donors in 10 mL vacutainers containing heparin (1 vacutainer collects approximately 8.5 mL blood). The blood was cooled on ice, transferred into 50 mL falcon tubes (20 mL/tube) or a 500 mL conical sterile centrifuge pot, and diluted with an equal volume P—B—C.
25 mL diluted blood or buffy coat was layered onto 15 mL cold ficoll and placed back on ice. The ficoll layered blood was centrifuged (Beckman GS-6R) for 45 minutes at 2000 rpm, 4° C. to separate the Peripheral Blood Mononuclear Cells (PBMC) from the Red Blood Cells (RBC) and granulocytes. The top aqueous layer was then aspirated until 1 inch above the PBMC layer. The PBMCs were transferred from every 2 ficoll tubes into one clean 50 mL falcon tube (=approx 10 mL/tube). The transferred PBMCs were diluted 5× with icecold PBS with 0.2% BSA (P—B) and centrifuged for 20 min at 1400 rpm and 4° C. The supernatant (this may be cloudy) was then aspirated and the PBMCs resuspended into 25 mL P—B and the cells counted (using a 1:5 dilution) and kept on ice.
The cells were then positively selected using anti-CD 19 antibody coupled to magnetic beads (Dynal®) as per manufacturer's instructions. The approximate required amount of CD19-Dynal® beads (CD19-coated dyna beads M-450 (pabB), Dynal®) was calculated by estimating the number of B-cells as 5% of PBMCs counted and adding approximately10 beads per cell from the bead stock (4×10^8 beads/mL). The CD19-Dynal® beads were washed 2× in P—B in a 5 mL tube using the Dynal® magnet, then added into the suspended PBMCs. This mixture was then passed through the Dynal® magnet and washed several times to separate the bead-bound cells.
After separation, the beads and antibody were removed using Dynal® CD19-DETACHaBEAD® for 45 min at 30° C. Yield is typically 2×10^7 B-cells per buffy coat. B-cells were washed and resuspended as 1E6 cells/mL in RPMI1640+10% FBS+Penicillin/[…]+1 ng/mL IFNα8. Cells were rested overnight at 37° C. and 5% CO2.
The following day, cells were washed and resuspended in RPMI+2.5% FBS to 1×10^6 cells/mL. Cells were then aliquoted into a V-bottom 96-well plate (Corning) at 65 uL cells per well. By robot, 65 uL of a 2× compound was added to the cells with final concentration of DMSO at 0.2%, and incubated for 1 hr at 37° C. Cells were then stimulated with 20 uL 7.5× α-IgM from Jackson laboratories (final 5 ug/mL) for 24 hrs. At day 3, the cells were spun down and stained for CD69 and analyzed by FACS gated on the live cells (by light scatter).
Varied concentrations of compound were compared to solvent only to determine the inhibition of B-cell activation IC50 of each compound.

The subject of data set [7] is FcγRI-mediated degranulation. In words: FcγRI-mediated degranulation (anti-human IgG Fab activation). It is filed as cell-based. The following applies: cells not primed with IgE, activated with rabbit anti-human IgG Fab fragment.
A further data set concerns the target T1, Syk kinase (Homo sapiens, UniProt P43405).
T1 construct: purchased Upstate, Lake Placid NY
Nature of the data set: Syk kinase biochemical fluorescence polarization assay. The settings on record: isolated Syk kinase, fluorescence polarization, 4 uM ATP. In general terms: Fluorescence polarisation rises when a labelled molecule tumbles more slowly, as on binding a larger partner.

Data set [8] is described as follows: Mouse Reverse Passive Arthus reaction (RPA reaction). It counts as in vivo, C57BL/6 mice. The following applies: oral, 100 mg/kg. As for the experimental part: In this model system, test compounds are administered at several timepoints prior to administration of Abs and Ags. A solution of rabbit anti-OVA IgG (50 μg in 25 μl/mouse) is injected intradermally, and immediately following is an intravenous injection of chicken egg albumin (20 mg/kg of body weight) in a solution containing 1% Evans blue dye. The degree of edema and hemorrhage is measured in the dorsal skin of C57BL/6 mice using the Evan's Blue dye as an indicator of local tissue damage. Purified polyclonal rabbit IgG is used as a control.
Pretreatment time, in which the test compounds are administered prior to Ab/Ag challenge, depends on the pharmacokinetic (PK) properties of each individual compound. Four hours after induction of Arthus reaction, mice are euthanized, and tissues are harvested for assessment of edema.

[9] abbreviates: Low Density CHMC, ionomycin activation, tryptase release, read-out: CHMC Ionomycin Tryptase IC50.
Setting [10] is: Low Density CHMC, anti-IgE activation, tryptase release, read-out: CHMC anti-IgE Tryptase IC50.

Consider `Oc1cccc(Nc2ccnc(Nc3cccc(O)c3)n2)c1` [Compound R926249], for which the IC50 in data set [1] (setting [9]) was greater than 10000 nM; in data set [2], 250 nM; in the data set on Jurkat cells, greater than 10000 nM; in [3], 954 nM; in the data set with B-cell line BJAB it was greater than 10000 nM; in [4] (setting [10]), 500 nM.

Consider `Fc1cnc(Nc2ccc3c(c2)OC(F)(F)C(F)(F)O3)nc1Nc1ccc2c(c1)OC(F)(F)C(F)(F)O2` [Compound R926037], for which the IC50 in data set [5], in data set [6] and in data set [3] was greater than 10000 nM in each case.

Take `O=C1Nc2cc(Nc3ncc(F)c(Nc4ccc5c(c4)NC(=O)C(F)(F)O5)n3)ccc2OC1(F)F` [Compound R940352]: the IC50 with Primary human B-cells came to 876 nM; in data set [3], 3530 nM; on Syk kinase, 130 nM. Besides, in data set [7], the “inhibition of FcγRI-mediated degranulation” value was “inhibit FcγRI-mediated degranulation”.

Consider `Oc1cccc(Nc2nc(Nc3ccc4c(c3)OCCO4)ncc2Br)c1` [Compound R925797], for which the IC50 in [1] (setting [9]) was greater than 10000 nM; in data set [2] it was 280 nM; in the data set with Jurkat cells it was greater than 10000 nM; in [3], 1510 nM; in the data set on B-cell line BJAB, greater than 10000 nM; in [4] (setting [10]) it was 850 nM.

As to `Cc1cnc(Nc2cccc(O)c2)nc1Nc1cccc(O)c1` [Compound R926248], the IC50 in [1] (setting [9]) is greater than 10000 nM; in data set [2], 760 nM; in the data set with Jurkat cells, greater than 10000 nM; in [3], 1540 nM; with B-cell line BJAB, greater than 10000 nM; in [4] (setting [10]), 900 nM.

As for `Oc1cccc(Nc2ncc(Br)c(Nc3cccc(O)c3)n2)c1` [Compound R925778], the IC50 in [1] (setting [9]) is greater than 10000 nM; in data set [2] it was 180 nM; in the data set on Jurkat cells, greater than 10000 nM; in data set [3], 3400 nM; in the data set on B-cell line BJAB, greater than 10000 nM; in [4] (setting [10]), 225 nM.

`CC(=O)Oc1cccc(Nc2ncc(F)c(Nc3cccc(OC(C)=O)c3)n2)c1` [Compound R926387]: the IC50 is greater than 10000 nM in data set [1] (setting [9]); 700 nM in [2]; greater than 10000 nM with Jurkat cells; 3850 nM in data set [3]; greater than 10000 nM in the data set on B-cell line BJAB; 650 nM in data set [4] (setting [10]).

On to `Cc1cc(Nc2ncc(F)c(Nc3ccc4c(c3)NC(=O)C(F)(F)O4)n2)cc(Cl)c1O` [Compound R926971], for which the IC50 in data set [1] (low cell density, read-out: CHMC Ionomycin Tryptase) is greater than 10000 nM; against Syk kinase, 8 nM; in [4] (low cell density, read-out: CHMC anti-IgE Tryptase), 34 nM. Moreover, the “inhibition of FcγRI-mediated degranulation” value in data set [7] is reported as “inhibit FcγRI-mediated degranulation”.

Consider `Fc1cnc(Nc2ccc3cn[nH]c3c2)nc1Nc1ccc(Cl)c(Cl)c1` [Compound R935372], for which the “% inhibition to vehicle control Edema Size ± SEM” value is on record as −0.6 ± 6.2% in [8] (pretreatment time 0.5 hrs), 23.5 ± 7.4% in data set [8] (pretreatment time 1 hrs) and −4.4 ± 17.7% in data set [8] (pretreatment time 2 hrs). Besides, the “Plasma Concentration ± SEM (ng/ml) Exposure = Pretreatment Time + 4 hours” value in data set [8] (pretreatment time 0.5 hrs + 4 hours) is 0.6 ± 1 ng/mL; in data set [8] (pretreatment time 1 hrs + 4 hours), 4.2 ± 4 ng/mL; in data set [8] (pretreatment time 2 hrs + 4 hours), 52.65 ± 39 ng/mL. The “inhibition of FcγRI-mediated degranulation” value in [7] is “inhibit FcγRI-mediated degranulation”. Besides, the figures for the IC50 (in data set [3]; on Syk kinase) were 30700 nM and 205 nM, respectively.
